Assay results published in patent US20240246967A1, “AXL COMPOUNDS” (ARCUS BIOSCIENCES, INC., priority 2021, published 2024).

Assays:
Axl [1] = target: T1, Axl (Homo sapiens, UniProt P30530); assay: Axl NanoBRET intracellular kinase assay (intracellular binding, Cell Binding); parameters: host or cells: HEK-293; details: HEK-293 cells transfected with Axl-NanoLuc fusion vector; 0.35 μM K-5 NanoBRET tracer
T1 sequence (P30530 26-894): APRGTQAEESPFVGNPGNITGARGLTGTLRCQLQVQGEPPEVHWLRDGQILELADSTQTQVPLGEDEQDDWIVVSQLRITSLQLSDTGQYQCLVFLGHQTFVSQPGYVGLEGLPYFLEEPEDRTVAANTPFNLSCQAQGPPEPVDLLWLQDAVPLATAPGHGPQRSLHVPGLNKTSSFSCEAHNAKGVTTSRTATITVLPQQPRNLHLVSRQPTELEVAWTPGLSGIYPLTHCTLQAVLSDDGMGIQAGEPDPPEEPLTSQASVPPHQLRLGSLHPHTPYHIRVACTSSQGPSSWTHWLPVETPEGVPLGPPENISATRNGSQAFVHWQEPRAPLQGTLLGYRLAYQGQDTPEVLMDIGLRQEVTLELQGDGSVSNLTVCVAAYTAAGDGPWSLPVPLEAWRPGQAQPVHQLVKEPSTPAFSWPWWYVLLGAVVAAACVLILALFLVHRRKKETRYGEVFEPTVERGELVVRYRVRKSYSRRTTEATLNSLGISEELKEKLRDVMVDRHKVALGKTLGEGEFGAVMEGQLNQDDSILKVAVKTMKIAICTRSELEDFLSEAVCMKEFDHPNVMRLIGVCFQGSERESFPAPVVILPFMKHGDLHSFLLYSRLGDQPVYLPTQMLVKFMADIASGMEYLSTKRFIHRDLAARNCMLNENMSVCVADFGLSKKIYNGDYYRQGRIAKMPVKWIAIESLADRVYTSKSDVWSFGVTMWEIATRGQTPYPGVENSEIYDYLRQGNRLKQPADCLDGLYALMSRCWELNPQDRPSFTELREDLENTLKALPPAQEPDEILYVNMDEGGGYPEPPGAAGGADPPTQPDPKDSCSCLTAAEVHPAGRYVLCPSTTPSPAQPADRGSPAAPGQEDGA
Experimental: Axl NanoBRET™ intracellular kinase assay (Promega, N2540) was performed according to manufacturer's recommendation. In brief, HEK-293 cells are transiently transfected with Axl-NanoLuc fusion vector (Promega, NV1071), utilizing Fugene HD transfection reagent (Promega, E2311) a day before experiment following manufacturer's recommendation.
The day of the assay, the cells were collected and resuspended in Opti-MEM media (ThermoFisher, 31985070) at 2e5 cells/mL concentration. Testing compounds were serial diluted and dispensed into a white 384 well polystyrene plate at 200 nL in 100% DMSO. 40 μL of resuspended cells is then added per well for a final condition of 8K cells/well with 0.5% DMSO. After one-hour compound pre-incubation at 37° C. and 5% CO2, cells were further incubated with 0.35 μM K-5 NanoBRET tracer for two-hours at 37° C. and 5% CO2. […] of 3× substrate plus Inhibitor solution was prepared according to kits manual and added to the cells followed by a 30 second pulse centrifugation spin. The plate was then immediately read utilizing an Envision (Perkin Elmer) plate reader. The BRET signal is measured by taking the ratio of the emissions reading at 610 nm and 450 nm. Compound binding is based on the decrease BRET signal caused by the displacement of the K-5 tracer. […] IC50 value of compounds was determined by 4-parameter non-linear regression fitting of percent activity in GraphPad Prism software.

Axl [2] = target: T1, Axl; assay: HTRF KinEASE-TK biochemical potency assay, AXL; parameters: purchased Invitrogen; details: 5 nM AXL, 700 μM ATP, 800 nM TK Substrate-biotin
Experimental: Purified recombinant human AXL, TYRO3 and MER proteins were purchased from Invitrogen™. 10 nM AXL, 2 nM TYRO3 or MER were incubated with varying concentrations of compounds in 50 mM HEPES, pH 7.4, 10 mM MgCl2, 0.01% BSA, 1 mM DTT and 2% DMSO in a total volume of 20 μl in a 384-well microplate (Corning™ #3640) at RT for 1 h. The AXL, TYRO3 and MER enzymatic reaction was initiated by transferring 10 μl of enzyme and compound mixture into 10 μl of 1.6 μM TK Substrate-biotin (HTRF® KinEASE-TK kit, Cisbio) and 1400 μM ATP pre-incubated in 50 mM HEPES, pH 7.4, 10 mM MgCl2, 0.01% BSA, 1 mM DTT in a 384-well microplate (Corning™ #3640) at RT, giving the final reaction conditions: 5 nM AXL, 1 nM TYRO3 or MER, 800 nM TK Substrate-biotin and 700 μM ATP in 50 mM HEPES, pH 7.4, 10 mM MgCl2, 0.01% BSA, 1 mM DTT and 1% DMSO with varying concentrations of compounds. Following 2 h incubation at RT, the AXL, TYRO3 and MER enzymatic reaction was stopped by transfer of 10 μl of reaction into 10 μl of detection mix (400 nM Streptavidin-XL665, 200-fold dilution TK Antibody-Cryptate and detection buffer, HTRF® KinEASE-TK kit, Cisbio) in a white 384-well microplate (Perkin Elmer, OptiPlate 384). After 1 h incubation at RT, the plate was put into a plate reader (Evision) to read at 665/620 nm (acceptor/donor) for HTRF. The value of the DMSO blank (MIN inhibition=100% activity) was used as a negative control. The positive control was established by adding 5 μl of enzyme and DMSO mixture into 10 μl of detection mix followed by addition of 5 μl of TK Substrate-biotin and ATP mixture (MAX inhibition=0% activity). To calculate the percent activity, Equation 1 was used. Ratio 665/620 is the value at a given compound concentration: […]

SMILES | IC50 (Axl [1]) | IC50 (Axl [2])
C[C@@H]1CCCN1C1(C)CCc2ccc(-c3cnc4[nH]nc(-c5ccc(S(N)(=O)=O)cc5)c4c3)cc2CC1 (stereo partly drawn) [Example 95, 4-(5-(7-Methyl-7-((R)-2-methylpyrrolidin-1-yl)-6,7,8,9-tetrahydro-5H-benzo[7]annulen-2-yl)-1H-pyrazolo[3,4-b]pyridin-3-yl)benzenesulfonamide] | < 0.1 µM | < 0.1 µM
CC(C)(C)S(=O)(=O)c1ccc(-c2n[nH]c3ncc(-c4ccc5c(c4)CC[C@@H](N4C6COCC4C6)CC5)cc23)cc1 [Example 124, 6-[(7S)-2-{3-[4-(2-methylpropane-2-sulfonyl)phenyl]-2H-pyrazolo[3,4-b]pyridin-5-yl}-6,7,8,9-tetrahydro-5H-benzo[7]annulen-7-yl]-3-oxa-6-azabicyclo[3.1.1]heptane] | < 0.1 µM | < 0.1 µM
C[C@@H]1CCCN1C1(C)CCc2ccc(-c3cnc4[nH]nc(-c5ccc(S(=O)(=O)C6CCCC6)cc5)c4c3)cc2CC1 (stereo partly drawn) [Example 45, 3-(4-(Cyclopentylsulfonyl)phenyl)-5-(7-methyl-7-((R)-2-methylpyrrolidin-1-yl)-6,7,8,9-tetrahydro-5H-benzo[7]annulen-2-yl)-1H-pyrazolo[3,4-b]pyridine] | 0.1 to 1 µM | < 0.1 µM
CC1(N[C@H]2CCOC2)CCc2ccc(-c3cnc4[nH]nc(-c5ccc(S(=O)(=O)C6CC6)cc5)c4c3)cc2CC1 (stereo partly drawn) [Example 115, (3S)-N-(2-{3-[4-(Cyclopropanesulfonyl)phenyl]-1H-pyrazolo[3,4-b]pyridin-5-yl}-7-methyl-6,7,8,9-tetrahydro-5H-benzo[7]annulen-7-yl)oxolan-3-amine] | 0.1 to 1 µM | < 0.1 µM
C[C@@H]1CCCN1C1CCc2ccc(-c3cnc4[nH]nc(-c5ccc(C6(O)CCC6)c(Cl)c5)c4c3)cc2CC1 (stereo partly drawn) [Example 62, 1-[2-Chloro-4-(5-{7-[(2R)-2-methylpyrrolidin-1-yl]-6,7,8,9-tetrahydro-5H-benzo[7]annulen-2-yl}-1H-pyrazolo[3,4-b]pyridin-3-yl)phenyl]cyclobutan-1-ol] | < 0.1 µM | < 0.1 µM
CS(=O)(=O)c1ccc(-c2n[nH]c3ncc(-c4ccc5c(c4)CCN(C4CCCC4)CC5)cc23)cc1 [Example 30, 3-Cyclopentyl-7-(3-(4-(methylsulfonyl)phenyl)-1H-pyrazolo[3,4-b]pyridin-5-yl)-2,3,4,5-tetrahydro-1H-benzo[d]azepine] | 0.1 to 1 µM | < 0.1 µM
COCCN1CCc2ccc(-c3cnc4[nH]nc(-c5ccc(C(C)(C)O)c(Cl)c5)c4c3)cc2CC1 [Example 34, 2-(2-Chloro-4-(5-(3-(2-methoxyethyl)-2,3,4,5-tetrahydro-1H-benzo[d]azepin-7-yl)-1H-pyrazolo[3,4-b]pyridin-3-yl)phenyl)propan-2-ol] | > 1 µM | < 0.1 µM
Cc1cc(-c2n[nH]c3ncc(-c4ccc5c(c4)CC[C@@H](N4CCCC4)CC5)cc23)cc(C)c1C(N)=O [Example 49, 2,6-Dimethyl-4-{5-[(7S)-7-(pyrrolidin-1-yl)-6,7,8,9-tetrahydro-5H-benzo[7]annulen-2-yl]-1H-pyrazolo[3,4-b]pyridin-3-yl}benzamide] | < 0.1 µM | < 0.1 µM
C[C@H]1CCCN1C1CCc2ccc(-c3cnc4[nH]nc(-c5ccc(S(C)(=O)=O)cc5)c4c3)cc2CC1 (stereo partly drawn) [Example 36, 5-(7-((S)-2-Methylpyrrolidin-1-yl)-6,7,8,9-tetrahydro-5H-benzo[7]annulen-2-yl)-3-(4-(methylsulfonyl)phenyl)-1H-pyrazolo[3,4-b]pyridine] | < 0.1 µM | < 0.1 µM
O=S(=O)(c1ccc(-c2n[nH]c3ncc(-c4ccc5c(c4)CCN(C4CCOCC4)CC5)cc23)cc1)C1CC1 [Example 26, 7-{3-[4-(Cyclopropanesulfonyl)phenyl]-1H-pyrazolo[3,4-b]pyridin-5-yl}-3-(oxan-4-yl)-2,3,4,5-tetrahydro-1H-3-benzazepine] | 0.1 to 1 µM | < 0.1 µM
C[C@H]1CCCN1C1(C)CCc2ccc(-c3cnc4[nH]nc(-c5ccc(C(C)(C)O)c(Cl)c5)c4c3)cc2CC1 (stereo partly drawn) [Example 58, 2-[2-Chloro-4-(5-{7-methyl-7-[(2S)-2-methylpyrrolidin-1-yl]-6,7,8,9-tetrahydro-5H-benzo[7]annulen-2-yl}-1H-pyrazolo[3,4-b]pyridin-3-yl)phenyl]propan-2-ol] | 0.1 to 1 µM | < 0.1 µM
C[C@H]1CCCN1C1(C)CCc2ccc(-c3cnc4[nH]nc(-c5ccc(S(=O)(=O)C6CC6)cc5)c4c3)cc2CC1 (stereo partly drawn) [Example 5, (2S)-1-(2-{3-[4-(Cyclopropanesulfonyl)phenyl]-1H-pyrazolo[3,4-b]pyridin-5-yl}-7-methyl-6,7,8,9-tetrahydro-5H-benzo[7]annulen-7-yl)-2-methylpyrrolidine] | < 0.1 µM | < 0.1 µM
CC(C)S(=O)(=O)c1ccc(-c2n[nH]c3ncc(-c4ccc5c(c4)CC[C@@H](N4CCCC4)CC5)cc23)cc1 [Example 42, (S)-3-(4-(Isopropylsulfonyl)phenyl)-5-(7-(pyrrolidin-1-yl)-6,7,8,9-tetrahydro-5H-benzo[7]annulen-2-yl)-1H-pyrazolo[3,4-b]pyridine] | < 0.1 µM | < 0.1 µM
CC1(N2CCC2)CCc2ccc(-c3cnc4[nH]nc(-c5ccc(S(=O)(=O)C6CC6)cc5)c4c3)cc2CC1 (centres unmarked) [Example 7, 1-(2-{3-[4-(Cyclopropanesulfonyl)phenyl]-1H-pyrazolo[3,4-b]pyridin-5-yl}-7-methyl-6,7,8,9-tetrahydro-5H-benzo[7]annulen-7-yl)azetidine] | < 0.1 µM | < 0.1 µM
C[C@@H]1CCCN1C1(C)CCc2ccc(-c3cnc4[nH]nc(-c5ccc(N6CCOCC6)cc5)c4c3)cc2CC1 (stereo partly drawn) [Example 107, 4-[4-(5-{7-Methyl-7-[(2R)-2-methylpyrrolidin-1-yl]-6,7,8,9-tetrahydro-5H-benzo[7]annulen-2-yl}-1H-pyrazolo[3,4-b]pyridin-3-yl)phenyl]morpholine] | > 1 µM | < 0.1 µM
C[C@@H]1CCCN1C1(C)CCc2ccc(-c3cnc4[nH]nc(-c5ccc(S(=O)(=O)C6CC6)c(F)c5)c4c3)cc2CC1 (stereo partly drawn) [Example 25, (2R)-1-(2-{3-[4-(Cyclopropanesulfonyl)-3-fluorophenyl]-1H-pyrazolo[3,4-b]pyridin-5-yl}-7-methyl-6,7,8,9-tetrahydro-5H-benzo[7]annulen-7-yl)-2-methylpyrrolidine] | < 0.1 µM | < 0.1 µM
